The subject of series [1] is vascular smooth muscle cells derived from normal human arteries. Kind of series: Suppression of PDGF-mediated migration of human vascular smooth muscle cells in vitro (Transwell chamber). In kind it is cell-based. To be noted: human PDGF 10 ng/ml, 6 hours; for No. of wandering cells: average cell count of five fields ± standard deviation, control 86.4±20.1. How it is done: To investigate the activity of the tested compound to inhibit cell migration, the migrated cells mediated by human platelet derived growth factor (PDGF) were measured in the following way using the vascular smooth muscle cells derived from normal human arteries and according to the method of MaCarthy et al. (J. Cell. Biol. 97, 772-777 (1983)). That is, a Transwell Chamber (Costar Co., registered trademark) was used to measure the inhibitory action. The chamber was divided into two layers, upper and lower, by a 8 µm pore size membrane filter (PVP - free polycarbonate filter, Nucleopore Co., registered trademark). The filter was precoated on its lower surface with 5 µg of rat tail collagen type 1 (Becton Dickinson Co.) To the upper chamber (100 µl) was added a 1.5 × 10^6/ml suspension of cells (DMEM (made by Flow Laboratories Co.) containing 0.1% BSA (made by Nakalai Tesque Co.) In the lower chamber (600 µl) was placed the same solution diluted by human PDGF (made by Becton Dickinson) to give a final concentration of 10 ng/ml. At this time, the tested compound was added in different concentrations to both the upper and lower chambers. The chambers were incubated at 37°C under 5% CO2 for 6 hours, then the filter was removed, fixed in 99.7% methanol, then stained with hematoxylin and eosin. The cells on the upper surface of the filter were removed by wiping with a cotton swab and the cells that had migrated to the lower surface of the filter were counted under a high output microscope (×200, ×400). Usually, five fields were counted per filter. The migrated cells were shown by the average cell count of five fields ± standard deviation. The significant difference was examined by the Student's two-tailed t test.

The test system of series [2] is Rat Carotid Artery Endothelium. Kind of series: Suppression of intima thickening after balloon catheter trauma to rat carotid artery endothelium. In kind it is in vivo, SD rats. The settings on record: for Intima: from 2 days before to 14 days after surgery, area of thickened intima; for Intima/Media / Media: 14 days after surgery; for Media: area of media; for Suppression rate: intima thickening suppression rate = (1-T/C) x 100 of Intima/Media versus solvent control. How it is done:
The test was performed in the following manner in accordance with the method of Krauz et al. (Lab. Invest., vol. 49, p. 208, 1983). Male SD rats having a body weight of 400 to 500g was used. The neck of each rat was opened under anesthesia by sodium pentobarbitol, then a balloon catheter (Fogarty, 2F) was inserted from the right external carotid artery until the starting portion of the common carotid artery. The balloon was expanded by physiological saline to such an extent causing a light resistance, then the catheter was pulled out in that state up to the carotid artery to give trauma to the intima. This procedure was repeated three times, then the catheter was withdrawn and the external carotid artery was sewn up. After 14 days, the chest was opened under anesthesia by pentobarbitol, refluxing was performed from the left ventricle by physiological saline containing heparin (20 units/ml), then the left common carotid artery was excised and immobilized by neutral formalin solution. The immobilized carotid artery was dyed by Olsein dye, then the areas of the media and thickened portion of the intima were measured by an image resolution device (LUZEX2D).
The test drug began to be administered subcutaneously at a rate of 1.0 µg/rat/hr or 3.2 µg/rat/hr using a miniosmotic pump buried in the back of the rat from two days before the surgery and was continued until 14 days after the surgery. The activity of the drug in suppressing intima thickening was found from the following formula.

Series [3] has as its system rat vascular smooth muscle cells (SMC). Nature of the series: Suppression of PDGF-induced wandering of rat vascular smooth muscle cells in vitro (blind well chamber). The settings on record: PDGF 20 ng/ml, 4 hours; for No. of wandering cells: average ± standard error, n=3, control 176±19; for Suppression rate: cell wandering suppression rate = 100 - (T/C x 100). In kind it is cell-based, rats. Here is the method:
Media tissue of the chest arteries of the rats was sampled in accordance with the method of Ross (J. Cell Biol. 50: 172-186, 1971), then was incubated by a Delvecco Modified Eagle Medium (DMEM) containing 10% fetal calf serum in a CO2 incubator (95% air-5% CO2, 37°C, humidity 100%). The fourth generation cultured cells were used for the experiment. The rat vascular smooth muscle cells (SMC) were freed by a 0.008% trypsin-0.01% EDTA solution and made to wander in DMEM containing 0.1% bovine serum albumin. The wandering of the cells was observed using a 24-well blind well chamber made by Neuro Probe. In the lower chambers were placed 100 µl amounts of a mixture of the cell wandering factor (platelet derived growth factor PDGF 20 ng/ml) and the drug. These were covered by a Nuclepore filter (pore size, 8 µm) made by Corning. 100 µl amounts of the incubation solution containing the drug and in which 5 × 10^5 cells/ml of SMC were made to wander were placed in the top chambers and allowed to stand in a CO2 incubator for 4 hours. After the end of the incubation, the smooth muscle cells were immobilized for each filter, then were Propidum dyed. The cells in the lower chambers were counted in four fields under a laser microscope in a 0.48 mm^2 area field. The average was used as the number of wandering cells.
The rate of suppression of cell wandering (%) was found from the following formula. Cell wandering suppression rate (%) = 100 - (T/C × 100) [formula] wherein, C and T respectively show the number of wandering cells at the time of addition of cell wandering factor minus the number of wandering cells at the time of no addition of cell wandering factor and the number of wandering cells at the time of addition of the drug.

In another series the test system is SD rats. Kind of series: Acute toxicity test, oral. The class given is in vivo. The settings on record: male SD rats, 6 weeks old, deaths/animals. How it is done: (§1) The above test compound was tested for acute toxicity using SD rats (6 weeks old, SPE, male) (p.o.), whereupon the results shown in the following Table 4 were obtained.
Series [4] can be described thus: Acute toxicity test, oral. In kind it is in vivo. The settings on record: rat, in vivo, po, male SD rats; judged from Table 4. How it is done: as §1
Where [5] appears, read: 1.0 µg/rat/hr s.c. by miniosmotic pump.

We go through 2 compounds from patent publication EP0722733A1, “BLOOD VESSEL THICKENING INHIBITOR AND SMOOTH MUSCLE FIBER MIGRATION INHIBITOR EACH CONTAINING 7-THIAPROSTAGLANDIN E 1? COMPOUND AS ACTIVE INGREDIENT” (TEIJIN LIMITED, priority 1993, dated 1995).

Structures are written as SMILES.

In the case of `CCCCC[C@H](O)/C=C/[C@H]1[C@H](O)CC(=O)[C@@H]1CCCCCCC(=O)O` [Prostaglandin E1, reference compound], the results for the “No. of wandering cells” value in series [1] (10^-7 M), in series [1] (10^-8 M) and in series [1] (10^-9 M) were 82.6±17.8, 82.4±6.9 and 91.0±9.8, respectively. Moreover, the Suppression rate result in series [1] (10^-9 M) was “No significance”.

Broadly, the LD50 is the dose at which mortality reaches 50%. A low value points to greater toxicity. In the case of `CCCC[C@@H](C)C[C@H](O)/C=C/[C@H]1[C@H](O)CC(=O)[C@@H]1SCCCCCC(=O)OC` [Test Compound, (17R)-17,20-dimethyl-7-thiaprostaglandin E1 methyl ester], the Suppression rate in series [1] (10^-7 M) is recorded as 78.0%; in series [1] (10^-8 M), 41.0%; in series [1] (10^-9 M), 22.2%; in series [2] (1.0 µg/rat/hr s.c.), 13.1%; in series [2] (3.2 µg/rat/hr s.c.) it was 31.4%; in series [3] (10^-8 M) it was 39.2%. In addition, the Suppression rate in series [3] (10^-9 M) came out at 33.5%. Besides, the “No. of wandering cells” value in series [1] (10^-7 M) is 19.0±11.8; in series [1] (10^-8 M), 51.0±9.5; in series [1] (10^-9 M) it was 67.2±15.7; in series [3] (10^-8 M), 107±15##(T) cells/0.48 mm^2; in series [3] (10^-9 M), 117±19##(T) cells/0.48 mm^2. The Intima in series [2] (1.0 µg/rat/hr s.c. by miniosmotic pump, average, standard error in the row below) was 0.118 mm²; in series [2] (3.2 µg/rat/hr s.c. by miniosmotic pump, P < 0.01 vs control), 0.093 mm². Further, the Intima/Media in series [2] (setting [5]) turned out to be 0.842; in series [2] (3.2 µg/rat/hr s.c. by miniosmotic pump, P < 0.05 vs control), 0.630. The results for the Media in series [2] (setting [5]) and in series [2] (3.2 µg/rat/hr s.c. by miniosmotic pump) were 0.14 mm² and 0.158 mm², respectively. The No. of deaths with SD rats (20 mg/kg p.o.) was 0/2; with SD rats (100 mg/kg p.o.) it was 1/2; in the series on SD rats (200 mg/kg p.o.), 2/2. Besides, the LD50 in series [4] is ~100 mg/kg.
